Source: ChEMBL document CHEMBL5465560, “Selectivity Literature for EUbOPEN Chemogenomic Library” (2024)
Changes are numbered by the printed parent chain.

Experiments:
[1] = target: Casein kinase II subunit alpha' (Homo sapiens) (UniProt P19784); test: Selectivity interaction (Kinase panel (DSF assay)) EUB0001559a CSNK2A2
[2] = tested on: T1, Receptor-type tyrosine-protein kinase FLT3 (Homo sapiens), P36888 [K663Q]; test: (§1) Selectivity interaction (KinomeScan (DiscoverX)) EUB0000607a FLT3; details: at 10 µM
T1 sequence (whole entry): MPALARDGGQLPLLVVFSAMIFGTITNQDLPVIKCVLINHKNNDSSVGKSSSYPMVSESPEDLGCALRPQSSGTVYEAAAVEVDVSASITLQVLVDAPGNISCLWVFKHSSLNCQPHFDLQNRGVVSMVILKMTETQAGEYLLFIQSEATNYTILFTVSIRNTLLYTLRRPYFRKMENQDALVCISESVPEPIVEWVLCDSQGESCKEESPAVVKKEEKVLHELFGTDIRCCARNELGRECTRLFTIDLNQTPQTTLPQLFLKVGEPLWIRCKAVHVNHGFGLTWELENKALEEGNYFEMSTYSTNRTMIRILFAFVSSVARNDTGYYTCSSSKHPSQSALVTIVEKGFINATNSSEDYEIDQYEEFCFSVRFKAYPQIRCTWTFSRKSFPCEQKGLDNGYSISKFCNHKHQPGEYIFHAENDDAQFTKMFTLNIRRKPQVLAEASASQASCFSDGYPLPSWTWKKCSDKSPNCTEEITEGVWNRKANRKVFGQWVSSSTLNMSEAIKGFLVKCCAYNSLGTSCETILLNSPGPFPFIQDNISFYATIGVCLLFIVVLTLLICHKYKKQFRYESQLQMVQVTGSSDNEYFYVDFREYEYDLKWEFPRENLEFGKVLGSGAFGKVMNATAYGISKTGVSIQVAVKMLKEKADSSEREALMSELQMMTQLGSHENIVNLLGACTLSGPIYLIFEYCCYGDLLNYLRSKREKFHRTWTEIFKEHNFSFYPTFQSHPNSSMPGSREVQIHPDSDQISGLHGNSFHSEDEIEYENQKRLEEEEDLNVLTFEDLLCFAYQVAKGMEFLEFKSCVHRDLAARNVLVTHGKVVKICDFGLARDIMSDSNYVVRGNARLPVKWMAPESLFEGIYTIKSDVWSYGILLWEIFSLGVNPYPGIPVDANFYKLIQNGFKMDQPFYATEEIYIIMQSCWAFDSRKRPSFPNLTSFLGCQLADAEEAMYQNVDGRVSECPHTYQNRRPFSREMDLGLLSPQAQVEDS

[3] = tested on: T2, Receptor-type tyrosine-protein kinase FLT3 (Homo sapiens), P36888 [N841I]; test: as §1; details: at 10 µM
T2 sequence (whole entry): T1 sequence (whole entry) with Q663K, N841I

[4] = tested on: T3, Receptor-type tyrosine-protein kinase FLT3 (Homo sapiens), P36888 [R834Q]; test: as §1; details: at 10 µM
T3 sequence (whole entry): T1 sequence (whole entry) with Q663K, R834Q

[5] = tested on: Receptor-type tyrosine-protein kinase FLT3 (Homo sapiens), P36888 [UNDEFINED MUTATION]; test: as §1; details: at 10 µM

Sequence of Casein kinase II subunit alpha' (Homo sapiens) (P19784 whole entry, looked up): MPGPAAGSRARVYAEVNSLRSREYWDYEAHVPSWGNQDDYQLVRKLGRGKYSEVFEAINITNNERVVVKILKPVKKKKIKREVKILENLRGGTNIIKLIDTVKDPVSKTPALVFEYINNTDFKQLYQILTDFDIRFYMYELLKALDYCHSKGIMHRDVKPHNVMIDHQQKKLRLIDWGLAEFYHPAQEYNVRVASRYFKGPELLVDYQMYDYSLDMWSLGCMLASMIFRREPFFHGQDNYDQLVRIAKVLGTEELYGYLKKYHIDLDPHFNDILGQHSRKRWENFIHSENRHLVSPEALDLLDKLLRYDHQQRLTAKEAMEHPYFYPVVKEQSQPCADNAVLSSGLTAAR

| SMILES | dTM [1] [K] | % of control [2] [%] | % of control [3] [%] | % of control [4] [%] | % of control [5] [%] |
| --- | --- | --- | --- | --- | --- |
| CN(C(=O)c1cnn2cccnc12)c1cc2c(cc1N1CCOCC1)C(=O)N(C[C@@H](F)C(C)(C)O)C2 | 1.4 |  |  |  |  |
| CNC(=O)Nc1ccc(-c2nc(N3CC4CCC(C3)O4)c3cnn(C4CCC5(CC4)OCCO5)c3n2)cc1 |  | 69 | 89 | 79 | 100 |
